Data set [1] deals with PBRM1-BD5. As to conditions: cited from earlier work.
Data set [2] relates to SMARCA2 bromodomain. The following applies: cited from earlier work.
The test system of data set [3] is PC3 cells. The following applies: 0.1, 1, 10 μM; compound 7 up to 100 μM.
Data set [4] concerns SMARCA2 bromodomain. The following applies: DSF; cited from earlier work.
Data set [5] concerns other tested bromodomains. As to conditions: DSF, 100 μM inhibitor, 10 μM bromodomain.
Data set [6] addresses SMARCA2B bromodomain (Homo sapiens, UniProt P51531). Type of data set: binding. The following applies: DSF, 100 μM inhibitor, 10 μM bromodomain.
Data set [7] concerns LNCaP cells expressing shRNA against PBRM1 or vector control. Format: cell-based, human. As to conditions: 10 μM, 5 days.
Data set [8] in a line: Solubility observed in the AlphaScreen assay. Type of data set: physicochemical. As to conditions: at tested concentrations.
Data set [9] relates to SMARCA2B bromodomain. As to conditions: cited from earlier work.

SMARCA2B bromodomain (Homo sapiens, UniProt P51531), sequence (P51531 1373-1493 isoform P51531-2 limits assumed): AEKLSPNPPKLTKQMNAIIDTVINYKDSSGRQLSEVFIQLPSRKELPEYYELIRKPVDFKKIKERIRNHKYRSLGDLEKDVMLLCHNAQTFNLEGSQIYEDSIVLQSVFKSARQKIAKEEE

As for `CN(C)/C=C1\CCn2c1nc(=O)c1c(Cl)cccc12` [Compound 2, (E)-6-Chloro-3-((dimethylamino)methylene)-2,3-dihydropyrrolo[1,2-a]quinazolin-5(1H)-one], the “binding toward PBRM1-BD5” value in data set [1] is “nanomolar binding”. For the same compound, in [2], the “binding toward SMARCA2 bromodomain” value is “nanomolar binding”.

Turning to `CCC(/C=C1\CCn2c1nc(=O)c1c(Cl)cccc12)CC` [Compound 7, (E)-6-Chloro-3-(2-ethylbutylidene)-2,3-dihydropyrrolo[1,2-a]quinazolin-5(1H)-one], the “growth inhibition of PC3 cells” value in data set [3] is given as “more substantial inhibition”. Besides, in [4], the “ΔTm SMARCA2 bromodomain” value is greater than 2.5 °C.

Consider `Cc1ccccc1C1NC(=O)c2c(Cl)cccc2N1` (centres unmarked) [Compound 15, 5-Chloro-2-(2-methylphenyl)-2,3-dihydroquinazolin-4(1H)-one], for which the “thermal stabilization of the other tested bromodomains (ΔTm)” value in data set [5] was less than 1 °C. For the same compound, the “SMARCA2B ΔTm” value in data set [6] is on record as “did not exhibit detectable thermal stabilization”.

With `Cc1cccc(C2NC(=O)c3c(Cl)cccc3N2)c1` (centres unmarked) [Compound 16, 5-Chloro-2-(3-methylphenyl)-2,3-dihydroquinazolin-4(1H)-one], the “growth inhibition of PC3 cells” value in data set [3] is “do not inhibit the growth”. In addition, the “effect on LNCaP viability with native PBRM1 vs PBRM1 knockdown” value in data set [7] is reported as “more significant effect on LNCaP viability in cells with native PBRM1 levels than in cells with PBRM1 knockdown”. Besides, the “SMARCA2B ΔTm” value in data set [6] was “did not exhibit detectable thermal stabilization”.

On to `Cc1cc(C)c(C2NC(=O)c3c(Cl)cccc3N2)c(C)c1` (centres unmarked) [Compound 22, 5-Chloro-2-(2,4,6-trimethylphenyl)-2,3-dihydroquinazolin-4(1H)-one], for which, in data set [8], the “solubility in the AlphaScreen assay” value was “solubility issues”.

With `Cc1cccc(C2NC(=O)c3c(Br)cccc3N2)c1` (centres unmarked) [Compound 34, 5-Bromo-2-(3-methylphenyl)-2,3-dihydroquinazolin-4(1H)-one], in [3], the “growth inhibition of PC3 cells” value is listed as “do not inhibit the growth”.

As for `CCC(CC)C1CC12CCn1c2nc(=O)c2c(Cl)cccc21` (centres unmarked) [LM146], in data set [9], the “binding toward SMARCA2B bromodomain” value is recorded as “low micromolar affinity”.

Turning to `O=C(/C=C/N1C[C@H]2C[C@@H]1CN2c1ccccn1)c1ccccc1O` [PFI-3], the “binding toward PBRM1-BD5” value in data set [1] is “nanomolar binding”. For the same compound, the “binding toward SMARCA2 bromodomain” value in data set [2] is reported as “nanomolar binding”.

The record behind these values is article PMC9630929 (Journal of medicinal chemistry, 2022).
